Tests used:
Syk = Syk (Homo sapiens, UniProt P43405); conditions: DLBCL, CLL, and mantle cell lymphoma; cited from earlier work
physchem = conditions: pH 3, aqueous buffer
[1] = Environmental stability (heat, acid, base); type: physicochemical
[2] = Safety and pharmacokinetics, single dose studies in healthy subjects; type: in vivo, human

In the case of COc1cc(Nc2ncc(F)c(Nc3ccc4c(n3)N(COP(=O)(O)O)C(=O)C(C)(C)O4)n2)cc(OC)c1OC [fostamatinib disodium], the clinical responses (Syk) is given as “produced clinical responses”.
With C=CC(=O)Nc1cccc(Nc2nc(Nc3ccc(OCCOC)cc3)ncc2F)c1.O=S(=O)(O)c1ccccc1 [N-(3-(5-fluoro-2-(4-(2-methoxyethoxy)phenylamino)pyrimidin-4-ylamino)phenyl)acrylamide benzenesulfonic acid salt] the solubility (physchem) was 400 µg/mL and the “environmental instabilities (i.e. heat, acid, base) that require special handling” value [1] was “no environmental instabilities”.
With C=CC(=O)Nc1cccc(Nc2nc(Nc3ccc(OCCOC)cc3)ncc2F)c1 [Compound 1, N-(3-(5-fluoro-2-(4-(2-methoxyethoxy)phenylamino)pyrimidin-4-ylamino)phenyl)acrylamide] the “pharmacokinetics (PK)” value [2] was “predictable pharmacokinetics” and the safety [2] was “adequate safety”.
